In patent US20160160189A1, “Truncated Constructs of RIPK3 and Related Uses” (ST. JUDE CHILDREN'S RESEARCH HOSPITAL, priority 2013, published 2016):
Peptide text beside a SMILES is read from it. * marks the point of attachment. Cbz = O=C(OCc1ccccc1)*; CH2F = FC*

How the values were obtained:
RIPK3 complexes = assay: DSS crosslinking of necrosome complexes resolved by western blotting; format: cell-based, murine; settings: 30 nM AP1; zVAD 50 μM, Nec1 30 μM
Experimental: A confluent monolayer of the indicated cells was incubated with the appropriate treatment for 30 minutes at 37 degrees. Cells were lysed in a modified, Tris-free NP40 buffer (30 mM HEPES pH 7.4, 150 mM NaCl, and 1% NP40) without protease inhibitors. Protein lysate was quantified according to standard BCA assay (Pierce) and fifty micrograms of each sample was treated with 0.1 mM DSS crosslinking agent (Thermo Scientific, #21658) for 30 minutes at room temperature; the reaction was quenched by the addition of Tris-HCl pH 7.2 to a final concentration of 50 mM for 15 minutes. Crosslinked samples were analyzed by Western blot as described above, using the anti-2A primary antibody for detection.

[1] = tested on: Cells expressing RIPK3ΔC-FKBPx2; assay: Homodimerizer-induced truncated RIPK3 necrosis, PI uptake; format: cell-based; settings: homodimerizer 1-100 nM, PI uptake at 3 hrs
Experimental: FIG. 6 provides a schematic for inducible RIPK-necrosis. Two systems for inducible RIPK-necrosis. […] Cell death in cells expressing RIPK1-FRB/RIPK3-FKBP and treated with heterodimerizer, and death was detected with annexin V-FITC. Death was inhibited by necrostatin-1 (not shown) (FIG. 6B). Cells expressing RIPK3ΔC-FKBPx2, treated with homodimerizer (1-100 nM); death was detected at 3 hrs by PI uptake. No effect of zVAD-fmk or necrostatin was observed (FIG. 6B).
An inducible dimer system has been employed to trigger homodimerization of caspase-8 in cells (27). The data provided herein support methods to induce RIPK-dependent necrosis by related approaches (FIG. 6A). Heterodimerization of RIPK1 and RIPK3 results in necrosis (see FIG. 6B) which is enhanced by inhibition of caspases and blocked by inhibition of RIPK1 (with nec1, data not shown). In contrast, truncated RIPK3 (lacking the RHIM domain for interaction with RIPK1) can only be oligomerized when FKBP domains (e.g., for example, two domains) that allow multiple monomers to be brought together by the dimerizing agent. Addition of the homodimerization agent to cells expressing this construct induces extremely rapid necrosis that that depends on the kinase activity of RIPK3, but is not affected by inhibition of caspases or nec1 treatment (FIG. 6C).

[2] = tested on: NIH-3T3 cells stably expressing RIPK3-1xFv; assay: AP1-induced RIPK3 dimerization cell death, IncuCyte imaging; format: cell-based, murine; settings: for effect on AP1 (RIPK3 dimerization)-induced cell death: 30 nM AP1, zVAD 50 μM, Nec1 30 μM, TNFR-Fc 200 ng/ml, siRNA 72 h before
Description: Fv domains rapidly dimerize in response to AP1 treatment that facilitated an investigation of the protein-protein interactions involved in RIPK3 activation and necroptosis (27a). For example, an Fv domain was appended to a C-terminus of RIPK3, that is adjacent to the RHIM domain, in an effort to mimic in situ RHIM-dependent interactions that define RIPK3 activation. RIPK3-1xFv was expressed in NIH-3T3 cells, a cell line that lacks endogenous RIPK3 expression and is therefore unresponsive to TNF-induced necroptosis. See, FIGS. 13A and 13B. Cell death responses of NIH-3T3 cells were quantified by construct expression over time using the IncuCyte imaging system, which allows precise quantification of cell death with high temporal resolution. For example, representative images were acquired from an IncuCyte Imager (data not shown). These images were NIH-3T3 cells stably expressing RIPK3-1xFV, treated with 10 nM AP1 (see FIG. 1B for a quantified graphical representation of this cell death). One set of images show a field of these cells undergoing RIPK3-dependent cell death; the media contains the cell impermeable DNA binding dye Sytox Green, which marks cells that have lost membrane integrity in green. Another set of images depicts the same image set, following analysis by the IncuCyte software package. This software counts each green (dead) cell in each image; counted cells are surrounded by purple halos. Each trace shown in this manuscript depicts data averaged from at least 3 independently treated wells of cells, each of which is imaged in at least 4 separate fields. Each experiment shown is representative of at least 3 separate replicates. All experiments on stably transduced cells is representative of at least three separate replicates performed on each of at least two distinct, independently-derived stable lines.
In the examples below, the following compounds were used: Recombinant murine TNF (Peprotech 315-01A) was used at 1 ng/ml unless otherwise specified; AP1 (Now commercialized by Clontech as “B/B Homodimerizer,” catalog #635059) was dissolved in ethanol to a concentration of 100 μM, then diluted in culture media to a final concentration of 30 nM unless otherwise indicated. zVAD (SM 13 Biochemicals SMFMK001) was dissolved in DMSO to a concentration of 50 mM, then diluted to 50 μM in culture media; Necrostatin-1(Sigma N9037-10MG) was dissolved in DMSO to a concentration of 30 mM, then diluted to 30 μM in culture media; TNFR-Fc (Fisher 430-RI-050) was used at a final concentration of 200 ng/ml; Shield drug was a kind gift of Dr. Tom Wandless and was used at a final concentration of 1 μM. SiGenome SMARTpool siRNAs were purchased from Dharmacon/Fisher. Pools targeting murine MLKL(M-061420-01), murine RIPK1 (M-040150-01), and murine caspase-8 (M-043044-01), as well as a non-targeting “scramble” pool(D-001206-14), were used. Two microliters of a 50 μM stock of these siRNAs were delivered to cells in 6-well format using Lipofectamine siRNA-Max reagent (Life Technologies 13778150) according to the manufacturer's instructions. Forty-eight hours later, these cells were re-plated into 24-well format for cell death assays, or harvested for western blot analysis of knockdowns.
These constructs were transduced into NIH-3T3 cells using standard protocols for helper-dependent retroviral transduction. Transduced cells were selected for 5 days in 1 μg/ml puromycin, then grown to confluence and sorted twice for homogenous GFP expression. […]

## CN1C(=O)C(Cc2c[nH]c3ccccc23)NC1=S (stereo not drawn) [necrostatin-1, Necrostatin-1]
RIPK3 complexes
  effect of inhibitor on RIPK3 complexes following RIPK3-1xFv dimerization: diminished the appearance of these complexes
[1]
  effect on homodimerizer-induced death: No effect
[1]; listed as nec1
  effect on homodimerizer-induced death: not affected
[2]
  effect on AP1 (RIPK3 dimerization)-induced cell death: suppressed
[2]; listed as Nec1
  effect on AP1 (RIPK3 dimerization)-induced cell death: blocked
[2]; RIPK1 siRNA, 30 nM AP1, 30 μM Nec1
  inhibitory effects of Nec1 on RIPK3 oligomerization upon knockdown of RIPK1: abrogated

## COC(=O)C[C@H](NC(=O)[C@H](C)NC(=O)[C@@H](NC(=O)OCc1ccccc1)C(C)C)C(=O)CF [zVAD] (Cbz-Val-Ala-Asp(OMe)-CH2F)
RIPK3 complexes
  effect of inhibitor on RIPK3 complexes following RIPK3-1xFv dimerization: increased shift of RIPK3 into higher molecular weight complexes
[1]
  effect on homodimerizer-induced death: No effect
[2]
  effect on AP1 (RIPK3 dimerization)-induced cell death: notably increased the rate and magnitude of necroptosis
